The test system of series [1] is T1, C. thiooxydans homolog.
T1 construct: gene MHETase homolog; Gly179 at the position of MHETase Ser131
Description: HPLC hydrolysis assay, initial velocities, substrate inhibition model fit. In kind it is biochemical, Comamonas thiooxydans. The settings on record: substrate inhibition constant. The text has this:
HPLC hydrolysis assay, initial velocities, substrate inhibition model fit on C. thiooxydans homolog | MHETase and both homologs also display this behavior

The subject of series [2] is T2, C. thiooxydans homolog.
T2 construct: gene MHETase homolog
To be noted: substrate inhibition model.

For series [3], the target named is T3, MHETase (Pseudideonella sakaiensis, UniProt A0A0K8P8E7).
T3 sequence (A0A0K8P8E7 18-603 limits assumed): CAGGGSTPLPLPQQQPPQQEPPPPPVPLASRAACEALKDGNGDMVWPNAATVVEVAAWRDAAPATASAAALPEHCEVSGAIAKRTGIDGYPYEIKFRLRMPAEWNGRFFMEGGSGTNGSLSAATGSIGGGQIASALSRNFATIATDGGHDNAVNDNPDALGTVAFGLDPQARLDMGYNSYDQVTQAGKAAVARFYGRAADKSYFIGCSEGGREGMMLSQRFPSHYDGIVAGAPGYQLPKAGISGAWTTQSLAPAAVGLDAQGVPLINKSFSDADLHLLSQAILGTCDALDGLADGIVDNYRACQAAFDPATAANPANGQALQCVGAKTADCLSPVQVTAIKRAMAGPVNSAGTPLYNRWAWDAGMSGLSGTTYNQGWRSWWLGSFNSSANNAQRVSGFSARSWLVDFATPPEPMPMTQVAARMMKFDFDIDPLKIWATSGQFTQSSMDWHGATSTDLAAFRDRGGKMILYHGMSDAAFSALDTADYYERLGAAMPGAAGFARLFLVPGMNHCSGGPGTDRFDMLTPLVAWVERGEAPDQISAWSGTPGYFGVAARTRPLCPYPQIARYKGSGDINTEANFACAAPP
Description: HPLC hydrolysis assay, initial velocities, substrate inhibition model fit. It counts as biochemical. Set-up: gene ISF6_0224; pET21b(+)-based expression in E. coli, purified; residue borders and tags only in SI; catalytic triad Ser225, Asp492, His528. The settings on record: substrate inhibition constant. The text has this: HPLC hydrolysis assay, initial velocities, substrate inhibition model fit on MHETase | MHETase is also the most susceptible to substrate inhibition with a Kk value of […]

The target of series [4] is T3, MHETase. Briefly: X-ray crystallography, […] Å. In kind it is binding. To be noted: active site; fully occupied in 6QZ3, partially occupied in 6QZ1. Set-up: gene ISF6_0224; pET21b(+)-based expression in E. coli, purified; residue borders and tags only in SI; catalytic triad Ser225, Asp492, His528.
Substrate in series [5]: O=C(O)c1ccc(C(=O)OCCO)cc1
Description: HPLC hydrolysis assay, initial velocities, simple Michaelis-Menten fit. In kind it is biochemical, Pseudideonella sakaiensis. The settings on record: simple Michaelis-Menten model. From the text:
HPLC hydrolysis assay, initial velocities, simple Michaelis-Menten fit on MHETase | The S131G mutant has a Km value approximately eightfold higher than that of wild-type MHETase

As usually defined, the Km is the concentration of substrate that gives half-maximal velocity.

Consider `O=C(O)c1ccc(C(=O)OCCO)cc1` [MHET], for which the Kk in the series with C. thiooxydans homolog [1] stood at 78.80 ± 3.04 µM; on MHETase [3] it was 307.30 ± 20.65 µM. Further, in the series with C. thiooxydans homolog [2], the Km is 175 ± 4.75 µM.

For `O=C(O)c1ccccc1` [benzoate], the “X-ray crystallography, 1.6 Å” value at MHETase [4] was “one structure with a fully occupied benzoic acid ligand (6QZ3)”.

B1: MHETase (Pseudideonella sakaiensis; S131G) (protein)
chain: CAGGGSTPLPLPQQQPPQQEPPPPPVPLASRAACEALKDGNGDMVWPNAATVVEVAAWRDAAPATASAAALPEHCEVSGAIAKRTGIDGYPYEIKFRLRMPAEWNGRFFMEGGGGTNGSLSAATGSIGGGQIASALSRNFATIATDGGHDNAVNDNPDALGTVAFGLDPQARLDMGYNSYDQVTQAGKAAVARFYGRAADKSYFIGCSEGGREGMMLSQRFPSHYDGIVAGAPGYQLPKAGISGAWTTQSLAPAAVGLDAQGVPLINKSFSDADLHLLSQAILGTCDALDGLADGIVDNYRACQAAFDPATAANPANGQALQCVGAKTADCLSPVQVTAIKRAMAGPVNSAGTPLYNRWAWDAGMSGLSGTTYNQGWRSWWLGSFNSSANNAQRVSGFSARSWLVDFATPPEPMPMTQVAARMMKFDFDIDPLKIWATSGQFTQSSMDWHGATSTDLAAFRDRGGKMILYHGMSDAAFSALDTADYYERLGAAMPGAAGFARLFLVPGMNHCSGGPGTDRFDMLTPLVAWVERGEAPDQISAWSGTPGYFGVAARTRPLCPYPQIARYKGSGDINTEANFACAAPP
notes: pET21b(+)-based expression in E. coli, purified; residue borders and tags only in SI; catalytic triad Ser225, Asp492, His528
For the molecule B1, the Michaelis constant (Km) in series [5] is 184.10 ± 3.50 µM.

Values taken from publication PMC7568301, “Characterization and engineering of a two-enzyme system for plastics depolymerization” (Proceedings of the National Academy of Sciences of the …, 2020).
